Measurements published in US9957263B2, “Bromodomain inhibitors” (AbbVie Inc., priority 2013, dated 2018).

Key:
[1] = molecular target: BRD4 (BDI_K57-E168) (Homo sapiens (Human), UniProt O60885); test: TR-FRET bromodomain binding assay, BRD4 first bromodomain; details: His-tagged BD1, Alexa647-labeled probe 100 nM
Outline: (§1)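 Read-out: TR-FRET ratio after 1 h at room temperature, normalized to controls and fitted for IC50, then converted to Ki. Reaction held 8 nM His-tagged domain, 1 nM Eu-anti-His antibody, Alexa647 probe (BDI 100 nM; BDII 30 nM) and test compound in 2% DMSO.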

[2] = molecular target: BRD4 (BDII_E352-M457) (Homo sapiens (Human), UniProt O60885); test: TR-FRET bromodomain binding assay, BRD4 second bromodomain; details: His-tagged BD2, Alexa647-labeled probe 30 nM
Outline: as §1

| Ki [1] | Ki [2] | Compound |
| --- | --- | --- |
| 0.0545 µM | 0.276 µM | Cn1cc(-c2cc(S(C)(=O)=O)ccc2Oc2ccc(F)cc2F)c2cc(CN3CCCN(c4ccccn4)CC3)[nH]c2c1=O [Example 126, 4-[2-(2,4-difluorophenoxy)-5-(methylsulfonyl)phenyl]-6-methyl-2-{[4-(pyridin-2-yl)-1,4-diazepan-1-yl]methyl}-1,6-dihydro-7H-pyrrolo[2,3-c]pyridin-7-one] |
| 0.0158 µM | 0.0938 µM | Cn1cc(-c2cc(S(C)(=O)=O)ccc2Oc2ccc(F)cc2F)c2cc(CN3CCOCC3c3ccco3)[nH]c2c1=O (stereo not shown) [Example 127, 4-[2-(2,4-difluorophenoxy)-5-(methylsulfonyl)phenyl]-2-{[3-(furan-2-yl)morpholin-4-yl]methyl}-6-methyl-1,6-dihydro-7H-pyrrolo[2,3-c]pyridin-7-one] |
| 0.0478 µM | 0.182 µM | Cc1nnc(C)n1C1CCN(Cc2cc3c(-c4cc(S(C)(=O)=O)ccc4Oc4ccc(F)cc4F)cn(C)c(=O)c3[nH]2)CC1 [Example 128, 4-[2-(2,4-difluorophenoxy)-5-(methylsulfonyl)phenyl]-2-{[4-(3,5-dimethyl-4H-1,2,4-triazol-4-yl)piperidin-1-yl]methyl}-6-methyl-1,6-dihydro-7H-pyrrolo[2,3-c]pyridin-7-one] |
| 0.0159 µM | 0.087 µM | Cc1cc(C)n(C2CN(Cc3cc4c(-c5cc(S(C)(=O)=O)ccc5Oc5ccc(F)cc5F)cn(C)c(=O)c4[nH]3)C2)n1 [Example 129, 4-[2-(2,4-difluorophenoxy)-5-(methylsulfonyl)phenyl]-2-{[3-(3,5-dimethyl-1H-pyrazol-1-yl)azetidin-1-yl]methyl}-6-methyl-1,6-dihydro-7H-pyrrolo[2,3-c]pyridin-7-one] |
| 0.0101 µM | 0.108 µM | Cn1cc(-c2cc(S(C)(=O)=O)ccc2Oc2ccc(F)cc2F)c2cc(CN3CCC(N4CCOCC4)CC3)[nH]c2c1=O [Example 130, 4-[2-(2,4-difluorophenoxy)-5-(methylsulfonyl)phenyl]-6-methyl-2-{[4-(morpholin-4-yl)piperidin-1-yl]methyl}-1,6-dihydro-7H-pyrrolo[2,3-c]pyridin-7-one] |
| 0.0497 µM | 0.165 µM | Cc1noc(C2CCCN2Cc2cc3c(-c4cc(S(C)(=O)=O)ccc4Oc4ccc(F)cc4F)cn(C)c(=O)c3[nH]2)n1 (stereo not shown) [Example 131, 4-[2-(2,4-difluorophenoxy)-5-(methylsulfonyl)phenyl]-6-methyl-2-{[2-(3-methyl-1,2,4-oxadiazol-5-yl)pyrrolidin-1-yl]methyl}-1,6-dihydro-7H-pyrrolo[2,3-c]pyridin-7-one] |
| 0.0269 µM | 0.128 µM | Cn1cc(-c2cc(S(C)(=O)=O)ccc2Oc2ccc(F)cc2F)c2cc(CN3CCN(c4ccccn4)CC3)[nH]c2c1=O [Example 132, 4-[2-(2,4-difluorophenoxy)-5-(methylsulfonyl)phenyl]-6-methyl-2-{[4-(pyridin-2-yl)piperazin-1-yl]methyl}-1,6-dihydro-7H-pyrrolo[2,3-c]pyridin-7-one] |
| 2.13 µM | 0.0203 µM | CCNC(=O)c1cc2c(-c3cc(S(=O)(=O)CC)ccc3Oc3c(C)cccc3NCC3CCOC3)cn(C)c(=O)c2[nH]1 (stereo not shown) [Example 133, N-ethyl-4-[5-(ethylsulfonyl)-2-{2-methyl-6-[(tetrahydrofuran-3-ylmethyl)amino]phenoxy}phenyl]-6-methyl-7-oxo-6,7-dihydro-1H-pyrrolo[2,3-c]pyridine-2-carboxamide] |
| 0.0234 µM | 0.00162 µM | CCNC(=O)/C=C/c1cc2c(-c3cc(S(=O)(=O)CC)ccc3Oc3c(C)cccc3C)cn(C)c(=O)c2[nH]1 [Example 134, (2E)-3-{4-[2-(2,6-dimethylphenoxy)-5-(ethylsulfonyl)phenyl]-6-methyl-7-oxo-6,7-dihydro-1H-pyrrolo[2,3-c]pyridin-2-yl}-N-ethylprop-2-enamide] |
| 0.0549 µM | 0.0231 µM | Cc1cccc(C)c1Oc1ccc(S(C)(=O)=O)cc1-c1cn(C)c(=O)c2[nH]c(-c3nc(C4CC4)no3)cc12 [Example 135, 2-(3-cyclopropyl-1,2,4-oxadiazol-5-yl)-4-[2-(2,6-dimethylphenoxy)-5-(methylsulfonyl)phenyl]-6-methyl-1,6-dihydro-7H-pyrrolo[2,3-c]pyridin-7-one] |
| 0.0885 µM | 0.00738 µM | Cc1cccc(C)c1Oc1ccc(S(C)(=O)=O)cc1-c1cn(C)c(=O)c2[nH]c(-c3nc(-c4cccnc4)no3)cc12 [Example 138, 4-[2-(2,6-dimethylphenoxy)-5-(methylsulfonyl)phenyl]-6-methyl-2-[3-(pyridin-3-yl)-1,2,4-oxadiazol-5-yl]-1,6-dihydro-7H-pyrrolo[2,3-c]pyridin-7-one] |
| 0.807 µM | 0.0087 µM | CCNC(=O)c1cc2c(-c3cc(S(=O)(=O)CC)ccc3Oc3c(C)cccc3Cn3cccn3)cn(C)c(=O)c2[nH]1 [Example 145, N-ethyl-4-{5-(ethylsulfonyl)-2-[2-methyl-6-(1H-pyrazol-1-ylmethyl)phenoxy]phenyl}-6-methyl-7-oxo-6,7-dihydro-1H-pyrrolo[2,3-c]pyridine-2-carboxamide] |
| 3.28 µM | 0.0501 µM | CCNC(=O)c1cc2c(-c3cc(S(=O)(=O)CC)ccc3Oc3c(C)cccc3CN3CCOCC3)cn(C)c(=O)c2[nH]1 [Example 146, N-ethyl-4-{5-(ethylsulfonyl)-2-[2-methyl-6-(morpholin-4-ylmethyl)phenoxy]phenyl}-6-methyl-7-oxo-6,7-dihydro-1H-pyrrolo[2,3-c]pyridine-2-carboxamide] |
| 0.761 µM | 0.0575 µM | CCNC(=O)c1cc2c(-c3cc(S(=O)(=O)CC)ccc3Oc3c(C)cccc3CN3CCCCC3)cn(C)c(=O)c2[nH]1 [Example 147, N-ethyl-4-{5-(ethylsulfonyl)-2-[2-methyl-6-(piperidin-1-ylmethyl)phenoxy]phenyl}-6-methyl-7-oxo-6,7-dihydro-1H-pyrrolo[2,3-c]pyridine-2-carboxamide] |
| 5.72 µM | 0.00702 µM | CCNC(=O)c1cc2c(-c3cc(S(=O)(=O)CC)ccc3Oc3c(C)cccc3CCc3ccccc3)cn(C)c(=O)c2[nH]1 [Example 148, N-ethyl-4-{5-(ethylsulfonyl)-2-[2-methyl-6-(2-phenylethyl)phenoxy]phenyl}-6-methyl-7-oxo-6,7-dihydro-1H-pyrrolo[2,3-c]pyridine-2-carboxamide] |
| 0.00281 µM | 0.000669 µM | CCS(=O)(=O)c1ccc(OC2CCCCC2)c(-c2cn(C)c(=O)c3[nH]c(-c4cnn(C5CCNCC5)c4)cc23)c1 [Example 149, 4-[2-(cyclohexyloxy)-5-(ethylsulfonyl)phenyl]-6-methyl-2-[1-(piperidin-4-yl)-1H-pyrazol-4-yl]-1,6-dihydro-7H-pyrrolo[2,3-c]pyridin-7-one] |
| 2.68 µM | 0.0739 µM | CCNC(=O)c1cc2c(-c3cc(S(=O)(=O)CC)ccc3Oc3c(C)cccc3Cn3ccnc3)cn(C)c(=O)c2[nH]1 [Example 150, N-ethyl-4-{5-(ethylsulfonyl)-2-[2-(1H-imidazol-1-ylmethyl)-6-methylphenoxy]phenyl}-6-methyl-7-oxo-6,7-dihydro-1H-pyrrolo[2,3-c]pyridine-2-carboxamide] |
| 0.813 µM | 0.00995 µM | CCNC(=O)c1cc2c(-c3cc(S(=O)(=O)CC)ccc3Oc3c(C)cccc3CN3CCCC3=O)cn(C)c(=O)c2[nH]1 [Example 151, N-ethyl-4-[5-(ethylsulfonyl)-2-{2-methyl-6-[(2-oxopyrrolidin-1-yl)methyl]phenoxy}phenyl]-6-methyl-7-oxo-6,7-dihydro-1H-pyrrolo[2,3-c]pyridine-2-carboxamide] |
| 2.08 µM | 0.036 µM | CCNC(=O)c1cc2c(-c3cc(S(=O)(=O)CC)ccc3Oc3c(C)cccc3CN3CCCS3(=O)=O)cn(C)c(=O)c2[nH]1 [Example 152, 4-[2-{2-[(1,1-dioxido-1,2-thiazolidin-2-yl)methyl]-6-methylphenoxy}-5-(ethylsulfonyl)phenyl]-N-ethyl-6-methyl-7-oxo-6,7-dihydro-1H-pyrrolo[2,3-c]pyridine-2-carboxamide] |
| 1.04 µM | 0.00261 µM | CCNC(=O)c1cc2c(-c3ccc(C(=O)N(CC(=O)NC)Cc4ccccn4)cc3Oc3c(C)cccc3C)cn(C)c(=O)c2[nH]1 [Example 153, 4-[2-(2,6-dimethylphenoxy)-4-{[2-(methylamino)-2-oxoethyl](pyridin-2-ylmethyl)carbamoyl}phenyl]-N-ethyl-6-methyl-7-oxo-6,7-dihydro-1H-pyrrolo[2,3-c]pyridine-2-carboxamide] |
| 1.04 µM | 0.0137 µM | CCNC(=O)c1cc2c(-c3ccc(C(=O)N(C)C4CCN(OC(=O)CC)CC4)cc3Oc3c(C)cccc3C)cn(C)c(=O)c2[nH]1 [Example 154, 4-[2-(2,6-dimethylphenoxy)-4-{methyl[1-(propanoyloxy)piperidin-4-yl]carbamoyl}phenyl]-N-ethyl-6-methyl-7-oxo-6,7-dihydro-1H-pyrrolo[2,3-c]pyridine-2-carboxamide] |
| 0.0237 µM | 0.364 µM | CN(C)C(=O)C1(N2CCCC2=O)CCN(Cc2cc3c(-c4cc(S(C)(=O)=O)ccc4Oc4ccc(F)cc4F)cn(C)c(=O)c3[nH]2)CC1 [Example 155, 1-({4-[2-(2,4-difluorophenoxy)-5-(methylsulfonyl)phenyl]-6-methyl-7-oxo-6,7-dihydro-1H-pyrrolo[2,3-c]pyridin-2-yl}methyl)-N,N-dimethyl-4-(2-oxopyrrolidin-1-yl)piperidine-4-carboxamide] |
| 0.0268 µM | 0.0423 µM | Cn1cc(-c2cc(S(C)(=O)=O)ccc2Oc2ccc(F)cc2F)c2cc(CN3CC(n4cncn4)C3)[nH]c2c1=O [Example 156, 4-[2-(2,4-difluorophenoxy)-5-(methylsulfonyl)phenyl]-6-methyl-2-{[3-(1H-1,2,4-triazol-1-yl)azetidin-1-yl]methyl}-1,6-dihydro-7H-pyrrolo[2,3-c]pyridin-7-one] |
